Data reported in patent publication US8119339B2, “Heteroduplex tracking assay” (priority 2000, dated 2012).
Where “and” joins values, the source holds several entries; their conditions need not be identical. Equal values may be shown once.

Experiments:
[1] = tested on: GHOST.CCR5 and GHOST.CXCR4 indicator cells (R5-tat, X4-tat); test: Rapid Cell Fusion Assay for coreceptor utilization (CAT-ELISA); type: cell-based; conditions: cloned patient env gene expressed on HL3T1 cells, fusion for 48 hours
From the text: Viral coreceptor usage was separately evaluated through the use of a Rapid Cell Fusion Assay. This assay enables determination of coreceptor usage from cloned HIV env gene sequences obtained directly from patient samples (e.g. blood, mucosal tissue). This method allows for greater efficiency in determination of viral coreceptor usage, by circumventing the need for cultivation of primary isolates. The Rapid Cell Fusion Assay can advantageously produce a result within one week after obtaining a patient sample. In addition, the Rapid Cell Fusion Assay allows study of patient-derived virus obtained from sites other than the peripheral blood, particularly those sites from which cultured virus cannot be obtained. For example, while circulating macrophages and CD4^+ T cells are the dominant reservoir of HIV-1, viral populations distinct from those in the peripheral blood exist in many reservoirs, including the genital tract.
The HL3T1 cell line was derived by stable transfection of parental HeLa cells with a chloramphenicol acetyltransferse (CAT) reporter construct containing a CAT gene is linked to an HIV-1 LTR promoter. The HL3T1 cells produce CAT protein only upon introduction of an active HIV-1 Tat protein. HL3T1 cells were transfected with a cloned env gene derived from a patient of interest. The cloned env gene product is expressed on the surface of the HL3T1 cells.
Indicator cell lines GHOST.CCR5 and GHOST.CXCR4 (respectively hereinafter “R5-tat” and “X4-tat”) cells were transfected with pSV2tat72, a construct expressing high levels of HIV-1 Tat under the control of the SV40 early promoter.
HL3T1 cells containing a cloned patient env gene were fused to R5-tat and X4-tat cells. Cell surface envelope protein variants will selectively interact with either CCR5 or CXCR4. Fusion only occurs when an HL3T1 envelope protein interacts with an indicator cell expressing a compatible coreceptor. Therefore, HL3T1 cells will fuse with either R5-tat and X4-tat, depending on the patient's env gene specificity. To initiate fusion, transfected HL3T1 and R5-tat or X4-tat cells were mixed in 6-well plates at 37° C. and allowed to fuse for 48 hours. To quantitate fusion, the cells were lysed with 0.5% NP-40. Fusion of HL3T1 cells to R5-tat or X4-tat activated CAT gene expression. Aliquots of the cell lysates were monitored for CAT production using a commercially available kit (CAT-ELISA, Boehringer Mannheim).
Twenty-five clones from each sample were analyzed to ensure that the fusion assay reflected the heterogeneous nature of HIV-1 populations.

[2] = tested on: HIV-1 strains using CCR5 versus CXCR4; test: QXR, proportion of patient HIV-1 using CCR5; type: in vivo, human; conditions: Status before combination therapy, single patient, on the listed anti-HIV therapy
Protocol: To quantitate HIV-1 coreceptor use, inventors constructed a variable, λ, as the proportion of strains using CCR5. This variable has since been renamed QXR. […] QXR values were assessed by utilizing qualitative assay data derived from primary isolates, biologic clones, and sequences of the V3 portion of the env gene. […] Thus, for the vast majority of virions, each virion uses either CCR5 or CXCR4. This relationship can be stated as a mixture
D=QXR(CCR5)+(1−QXR)(CXCR4); 0≦QXR≦1, where D is the distribution of viral phenotypes. By design, it is a binomial population.
QXR values were constructed by relating data derived from the same patient sample by using three different analyses: biologic cloning, V3 sequencing of patient-derived molecular clones, and qualitative assays of primary isolates. To construct QXR values, inventors first calculated the proportion of biologic and, if available, molecular clones using CCR5 at each time point, then linked the proportion to the qualitative coreceptor use score (− to 3+) of primary isolates obtained simultaneously. Data that were not available were interpolated. […]
The large number of biologic and molecular clones permitted derivation of a system to quantitate the proportion of virus in a clinical specimen that uses each coreceptor. […] By applying this method, it was determined the proportion of virus using each coreceptor for each patient over time. […]

[3] = tested on: CD4+ cells; test: CD4+ cell count in women before and after antiretroviral therapy; type: in vivo, human; conditions: Status before combination therapy, single patient, on the listed anti-HIV therapy
Protocol: (§1) Coreceptor use was examined in twenty-two women who participated in two prospective studies of HIV-1 infection. Nineteen were enrolled in the Bronx-Manhattan site of Women's Interagency HIV Study (WIHS), a National Institutes of Health (NIH) multicenter study of the natural history of HIV-1 infection in women. Three took part in a study of HIV-1 pathogenesis performed at the Wadsworth Center of the New York State Department of Health in Albany, N.Y. Both studies included individuals with a broad spectrum of HIV-1 disease. The institutional review boards at each clinical site and the New York State Department of Health approved the investigation. Each woman provided informed consent at enrollment.
(§2) To examine the effect of combination antiretroviral therapy on HIV-1 coreceptor use, women infected with CXCR4 strains were sought.
(§3) At that time, eight women were receiving antiretroviral therapy, primarily zidovudine monotherapy. While under study, however, 12 initiated new combination regimens; 9 received HAART (Group I) and 3 received two or more nucleoside analogues (Group II). […] In Table 1, “Before therapy” refers to data obtained at the visit immediately preceding initiation of new two or three drug antiretroviral therapy in Groups I & II. For Group III, data from the first time point are shown (a). “Follow-up” refers to data obtained at the first time point following the initiation of the anti-HIV therapy listed for Groups I & II.

[4] = tested on: HIV-1; conditions: Status before combination therapy, single patient, on the listed anti-HIV therapy
Protocol: as §1, §2
Once the study population was selected, blood was drawn and separated into plasma and cell components (Anastos et al. (2000) J. AIDS Hum. Retro. (in press); Fang et al. (1995)). HIV-1 RNA in plasma was quantitated by using NucliSens (Organon Teknika Corp., Durham, N.C.), with a lower limit of quantitation of ˜80 copies/ml. The CCR5 genotype of each patient was determined as described (Samson et al. (1996)).
as §3

[5] = tested on: V3 region of the env gene; test: Coreceptor use predicted from V3 loop sequences of plasma HIV-1 RNA molecular clones; conditions: number of molecular clones of virion-derived plasma HIV-1 RNA
From the text: HIV-1 virions were isolated from plasma samples as described (Fang et al. (1996) J. AIDS Hum. Retro. 12:352-7). Reverse transcriptase polymerase chain reaction amplification produced a 920-bp amplicon spanning the V3 region of the env gene. Reaction conditions were controlled rigorously to minimize recombination and other artifacts (Fang et al. (1996)). Amplified products were cloned into a TOPO™ TA vector (Invitrogen, Carlsbad, Calif.), verified by restriction digestion, and sequenced. Alignment of the sequences was initially done using the PILEUP program in the GCG Suite (Genetics Computer Group, Madison, Wis.), then checked manually. Envelope sequences were used to predict coreceptor use on the basis of the overall charge of the V3 loop and the presence of basic or acidic residues at positions […] (Bhattacharyya et al. (1996); and Hung et al. (1999)).
These sequences predicted a pattern of coreceptor use that essentially paralleled the one obtained by using viral culture (Table 2B, Coreceptor use determined by cocultivation of PBMCs vs. sequence analysis of plasma HIV-1 RNA). […] At each time point, coreceptor use was assayed by co-cultivating PBMCs and determining the V3 loop sequence of virion-derived HIV-1 RNA.

Compound | CORECEPTOR [1] | also measured
CIRPNNNTRTSIRIGPRQAFYATGNIIGDIRQAYC [AF2P12-10] | CXCR4 | 
CTRPNNNTRKSVHIGPGQAFYATGDIIGDIRQAYC [AF5P-5] | CCR5 | 
CTRPNNNTRKSVHIGPGQAFYATGDIIGNMRKAHC [AF3P-12] | CCR5 | 
CTRPNNNTRKSVHIGPGQAFYATGDIIGNIRKAHC [AF3P-4] | CCR5 | 
CIRPNNNTRTSIRIGPGQAFYATGNIIGGIRQAYC [AF2P12-2] | CCR5 | 
CTRPNDNIRKRVHIGPGQAFYATGDVIGDIRRAHC [AF10P97-4] | CXCR4 | 
CTRPSNNRRKSIHMGPGQAFYGT.DDIIGGIRKARC [AF6P-11] | CCR5 | 
CTRPNNNTITSIRIGPGQAFYATGSIIGNTRQAHC [AF9P2-4] | CCR5 | 
CTRPNNNTRKSVHIGLGQAFYATGDIIGNIRKAHC [AF3P-9] | CCR5 | 
Cc1cn([C@H]2C=C[C@@H](CO)O2)c(=O)[nH]c1=O [d4T, stavudine] |  | QXR, proportion of HIV-1 Using R5 [2]: 0.36; CD4+ count, cells per mm3 [3]: 9 cells per mm3; HIV-1 RNA, log copies per ml [4]: 5.28 log copies per ml
CIRPNNNTRQSVHIGPGQALYTTEIIGDIRKAHC [AF7P-9] | CCR5 | 
CTRPSNNRRKSIHKGDQDKHSMEHDDVIGDIRKARC [AF6P-7] | negative | 
CTRPNNNTKKSVHIGPGQAFYATGDIIGDIRQAYC [AF5P-6] | CCR5 | 
........RKSVHIGPGQAFYATGDIIGNIRKAHC [AF3P-2] | negative | 
Cc1cn([C@H]2C[C@H](N=[N+]=[N-])[C@@H](CO)O2)c(=O)[nH]c1=O [AZT, zidovudine] |  | Distribution of Co-Receptor Use Predicted by V3 Loop Sequences, CCR5 [5]: 9; Distribution of Co-Receptor Use Predicted by V3 Loop Sequences, CXCR4 [5]: 4; QXR, proportion of HIV-1 Using R5 [2]: 0.36 (2×) and 0.90 and 0.00 (2×); CD4+ count, cells per mm3 [3]: 188 cells per mm3 and 42 cells per mm3 and 259 cells per mm3 and 307 cells per mm3 and 43 cells per mm3; HIV-1 RNA, log copies per ml [4]: 5.30 log copies per ml and 4.94 log copies per ml and 5.58 log copies per ml and 5.04 log copies per ml and 5.23 log copies per ml
CTRPNNNTRKSVHIGPGQAFYATGDILGNIRQAHC [AF3P-11] | CCR5 | 
CTRPNNNTITSIRIGPGQAFYATGSIIGNIRQAHC [AF9P2-3] | CCR5 | 
CTRPINNRRKSIHMGPGQAFYGT.DDIIGDIRKARC [AF6P-1] | CCR5 | 
CIRPNNNTRTSIRIGPGQAFYATGNIVGDIRQAYC [AF2P12-11] | CCR5 | 
CTRPSNNRRKSIHMGPGQAFYGT.DDIIGDIRKARC [AF6P-12] | CCR5 | 
CTRPNDNIRKSVHIGPGQAFYATGDIIGDIRRAHC [AF10P97-2] | CCR5 | 
CIRPNNNTRTSIRIGPGQAFYATGNIIGDIRQAYC [AF2P12-12] | CCR5 | 
CTRPNNNTRKSVHIGPGQAFYATGDIIGNIRQAHC [AF3P-6] | CCR5 | 
CTRPINNRRKSIHIGPGQAFYGT.DDIIGDIRQAHC [AF6P-10] | CCR5 | 
